Measured values published in patent US20090062273A1, “3-H-pyrazolopyridines and salts thereof, pharmaceutical compositions comprising same, methods of preparing same and uses of same” (priority 2006, published 2009).

Assays:
[1] = target: T1, Tie2 (Homo sapiens, UniProt Q02763); assay: Tie-2-Kinase HTRF-Assay without kinase preactivation; format: biochemical; design: fusion protein of GST and the intracellular domains of Tie-2; GST; made in house; host or cells: insect cells (Hi-5); conditions: GST-Tie-2 intracellular domains, 10 μM ATP
Excerpt: Tie2-inhibitory activity of compounds of the present invention was quantified employing two Tie2 HTRF assay as described in the following paragraphs.
A recombinant fusion protein of GST and the intracellular domains of Tie-2, expressed in insect cells (Hi-5) and purified by Glutathion-Sepharose affinity chromatography was used as kinase. Alternatively, commercially available GST-Tie2-fusion protein (Upstate Biotechnology, Dundee, Scotland) can be used As substrate for the kinase reaction the biotinylated peptide biotin-Ahx-EPKDDAYPLYSDFG (C-terminus in amid form) was used which can be purchased e.g. from the company Biosynthan GmbH (Berlin-Buch, Germany). Detection of phosphorylated product is achieved specifically by a trimeric detection complex consisting of the phosphorylated substrate, streptavidin-XLent (SA-XLent) which binds to biotin, and Europium Cryptate-labeled anti-phosphotyrosine antibody PT66 which binds to phosphorylated tyrosine.
Tie-2 (3.5 ng/measurement point) was incubated for 60 min at 22° C. in the presence of 10 μM adenosine-tri-phosphate (ATP) and 1 μM substrate peptide (biotin-Ahx-EPKDDAYPLYSDFG-NH2) with different concentrations of test compounds (0 μM and concentrations in the range 0.001-20 μM) in 5 μl assay buffer [50 mM Hepes/NaOH pH 7, 10 mM MgCl2, 0.5 mM MnCl2, 1.0 mM dithiothreitol, 0.01% NP40, protease inhibitor mixture (“Complete w/o EDTA” from Roche, 1 tablet per 2.5 ml), 1% (v/v) dimethylsulfoxide]. The reaction was stopped by the addition of 5 μl of an aqueous buffer (25 mM Hepes/NaOH pH 7.5, 0.28% (w/v) bovine serum albumin) containing EDTA (90 mM) and the HTRF (Homogeneous Time Resolved Fluorescence) detection reagents streptavidine-XLent (0.2 μM, from Cis Biointernational, Marcoule, France) and PT66-Eu-Chelate (0.3 ng/μl; a europium-chelate labelled anti-phospho-tyrosine antibody from Perkin Elmer).
The resulting mixture was incubated 1 h at 22° C. to allow the binding of the biotinylated phosphorylated peptide to the streptavidine-XLent and the PT66-Eu-Chelate. Subsequently the amount of phosphorylated substrate peptide was evaluated by measurement of the resonance energy transfer from the PT66-Eu-Chelate to the streptavidine-XLent. Therefore, the fluorescence emissions at 620 nm and 665 nm after excitation at 350 nm was measured in a HTRF reader, e.g. a Rubystar (BMG Labtechnologies, Offenburg, Germany) or a Viewlux (Perkin-Elmer). The ratio of the emissions at 665 nm and at […] was taken as the measure for the amount of phosphorylated substrate peptide. The data were normalised (enzyme reaction without inhibitor=0% inhibition, all other assay components but no enzyme=100% inhibition) and IC50 values were calculated by a 4 parameter fit using an inhouse software.
Target sequence in this assay (Q02763 770-1124 limits assumed, species assumed): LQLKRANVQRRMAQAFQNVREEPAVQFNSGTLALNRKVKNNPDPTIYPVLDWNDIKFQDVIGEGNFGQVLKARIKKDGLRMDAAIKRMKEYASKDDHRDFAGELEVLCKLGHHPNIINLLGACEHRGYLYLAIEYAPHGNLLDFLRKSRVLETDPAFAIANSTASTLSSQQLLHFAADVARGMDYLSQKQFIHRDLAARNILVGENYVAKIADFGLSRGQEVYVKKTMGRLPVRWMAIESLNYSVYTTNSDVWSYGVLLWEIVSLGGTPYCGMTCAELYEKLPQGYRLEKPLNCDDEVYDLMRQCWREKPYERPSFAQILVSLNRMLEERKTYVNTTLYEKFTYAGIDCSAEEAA

[2] = target: T1, Tie2; assay: Tie2 ELISA assay (cellular Tie2 autophosphorylation); format: cell-based; design: expressed in transfected cells; host or cells: CHO (CHO Tie2/DHFR); conditions: CHO cells stably transfected with Tie2, stimulated by angiopoietin-2; Tie2 autophosphorylation by sandwich-ELISA; read-out: Tie 2 activity (assay 1)
Procedure: Cellular activity of compounds of the present invention as inhibitors of Tie2 kinase activity was measured employing a Tie2 ELISA assay as described in the following paragraphs. Herein CHO cell-cultures, which are stably transfected by known techniques with Tie2 using DHFR deficiency as selection marker, are stimulated by angiopoietin-2. The specific autophosphorylation of Tie2 receptors is quantified with a sandwich-ELISA using anti-Tie2 antibodies for catch and anti-phosphotyrosine antibodies coupled to HRP for detection.
• 96 well tissue culture plate, sterile, Greiner • 96 well FluoroNunc plate MaxiSorp Surface C, Nunc • 96 well plate polypropylene for compound dilution in DMSO • CHO Tie2/DHFR (transfected cells) • PBS−; PBS++, DMSO • MEM alpha Medium with Glutamax-I without Ribonucleosides and Deoxyribonucleosides (Gibco #32561-029) • with 10% FCS after dialysis! and 1% PenStrep • Lysis buffer: 1 Tablet “Complete” protease inhibitor • 1 cap Vanadate (1 mL>40 mg/mL; working solution 2 mM) • ad 50 mL with Duschl-Puffer • pH 7.6 • Anti-Tie2-antibody 1:425 in Coating Buffer pH 9.6 • Stock solution: 1.275 mg/mL>working.: 3 μg/mL • PBST: 2 bottles PBS (10×)+10 ml Tween, fill up with VE-water • RotiBlock 1:10 in VE-water • Anti-Phosphotyrosine HRP-Conjugated 1:10000 in 3% TopBlock • 3% TopBlock in PBST • BM Chemiluminescence ELISA Substrate (POD) • solution B 1:100 solution A • SF9 cell culture medium • Ang2-Fc in SF9 cell culture medium
• Dispense 5×10^4 cells/well/98 μL in 96 well tissue culture plate • Incubate at 37° C./5% CO2 • After 24 h add compounds according to desired concentrations • Add also to control and stimulated values without compounds 2 μL DMSO • And mix for a few min at room temperature • Add 100 μL Ang2-Fc to all wells except control, which receives insect medium • Incubate 20 min at 37° C. • Wash 3× with PBS++ • Add 100 μl Lysis buffer/well and shake a couple of min at room temperature • Store lysates at […] before utilizing for the ELISA
• Coat 96 well FluoroNunc Plate MaxiSorp Surface C with anti-Tie2 mAb 1:425 in Coating buffer pH 9.6; 100 μL/well overnight at 4° C. • Wash 2× with PBST • Block plates with 250 μL/well RotiBlock 1:10 in VE-water • Incubate for 2 h at room temperature or overnight at 4° C. shaking • Wash 2× in PBST • Add thawed lysates to wells and incubate overnight shaking at 4° C. • Wash 2× with PBST • Add 100 μL/well anti-Phosphotyrosine HRP-Conjugated 1:10000 in 3% TopBlock (3% TopBlock in PBST) and incubate overnight under shaking • Wash 6× with PBST • Add 100 μL/well BM Chemiluminescence ELISA Substrate (POD) solutions 1 und 2 (1:100) • Determine luminescence with the LumiCount. Assay 2: Tie-2-Kinase HTRF-Assay without Kinase Preactivation
Target sequence in this assay (Q02763 23-1124, species assumed): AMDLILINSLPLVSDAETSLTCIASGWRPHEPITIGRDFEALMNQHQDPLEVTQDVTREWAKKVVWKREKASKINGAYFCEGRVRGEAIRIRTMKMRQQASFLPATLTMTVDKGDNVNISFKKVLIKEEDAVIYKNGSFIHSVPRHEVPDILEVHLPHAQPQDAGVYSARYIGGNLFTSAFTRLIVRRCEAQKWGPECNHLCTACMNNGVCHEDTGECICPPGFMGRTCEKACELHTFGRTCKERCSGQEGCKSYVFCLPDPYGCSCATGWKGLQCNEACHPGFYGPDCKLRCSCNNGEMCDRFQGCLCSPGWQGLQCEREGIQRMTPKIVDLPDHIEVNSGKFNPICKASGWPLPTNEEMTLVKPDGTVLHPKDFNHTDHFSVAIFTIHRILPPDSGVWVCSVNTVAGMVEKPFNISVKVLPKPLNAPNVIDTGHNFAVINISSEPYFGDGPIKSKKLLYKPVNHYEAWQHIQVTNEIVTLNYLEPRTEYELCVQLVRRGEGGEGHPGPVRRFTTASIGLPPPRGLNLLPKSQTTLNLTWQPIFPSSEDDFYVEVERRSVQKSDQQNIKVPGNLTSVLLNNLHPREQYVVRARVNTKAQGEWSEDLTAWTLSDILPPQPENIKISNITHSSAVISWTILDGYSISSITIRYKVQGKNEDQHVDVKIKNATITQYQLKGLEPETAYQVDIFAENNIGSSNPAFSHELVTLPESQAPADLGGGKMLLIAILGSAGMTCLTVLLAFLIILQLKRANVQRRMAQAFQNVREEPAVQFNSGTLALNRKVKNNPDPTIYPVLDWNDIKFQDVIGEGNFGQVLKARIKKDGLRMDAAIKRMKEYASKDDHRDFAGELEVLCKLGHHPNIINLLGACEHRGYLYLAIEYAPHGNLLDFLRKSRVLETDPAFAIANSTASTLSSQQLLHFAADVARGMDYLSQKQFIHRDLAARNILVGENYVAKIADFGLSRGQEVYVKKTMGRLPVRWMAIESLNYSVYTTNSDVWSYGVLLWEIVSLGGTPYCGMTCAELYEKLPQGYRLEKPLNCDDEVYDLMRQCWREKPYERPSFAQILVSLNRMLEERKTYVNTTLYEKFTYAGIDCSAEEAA

SMILES	IC50 [1]	IC50 [2]
COCCn1ncc2c(-c3ccc(NC(=O)Nc4cccc(C(F)(F)F)c4)cc3)cncc21 [Example 12.1, 1-{4-[1-(2-Methoxy-ethyl)-1H-pyrazolo[3,4-c]pyridin-4-yl]-phenyl}-3-(3-trifluoromethyl-phenyl)-urea]	< 501 nM	< 501 nM
COCCn1ncc2c(-c3ccc(NC(=O)Nc4cc(C)ccc4F)cc3)cncc21 [Example 12.3, 1-(2-Fluoro-5-methyl-phenyl)-3-{4-[1-(2-methoxy-ethyl)-1H-pyrazolo[3,4-c]pyridin-4-yl]-phenyl}-urea]	< 501 nM	< 501 nM
COCCn1ncc2c(-c3ccc(NC(=O)Nc4cccc(C(F)(F)F)c4)c(F)c3)cncc21 [Example 12.4, 1-{2-Fluoro-4-[1-(2-methoxy-ethyl)-1H-pyrazolo[3,4-c]pyridin-4-yl]-phenyl}-3-(3-trifluoromethyl-phenyl)-urea]	< 501 nM	< 501 nM
COCCn1ncc2c(-c3ccc(NC(=O)Nc4cc(C(F)(F)F)ccc4F)c(F)c3)cncc21 [Example 12.5, 1-{2-Fluoro-4-[1-(2-methoxy-ethyl)-1H-pyrazolo[3,4-c]pyridin-4-yl]-phenyl}-3-(2-fluoro-5-trifluoromethyl-phenyl)-urea]	< 501 nM	< 501 nM
Cn1ncc2c(-c3ccc(NC(=O)Nc4cc(C(C)(C)C)on4)cc3)cncc21 [Example 13.2, 1-(5-tert-Butyl-isoxazol-3-yl)-3-[4-(1-methyl-1H-pyrazolo[3,4-c]pyridin-4-yl)-phenyl]-urea]	< 501 nM	< 501 nM
Cn1ncc2c(-c3ccc(NC(=O)Nc4cc(C(C)(C)C)nn4-c4ccccc4)cc3)cncc21 [Example 13.4, 1-(5-tert-Butyl-2-phenyl-2H-pyrazol-3-yl)-13-[4-(1-methyl-1H-pyrazolo[3,4-c]pyridin-4-yl)-phenyl]-urea]	< 501 nM	< 501 nM
CN1CCN(Cc2ccc(NC(=O)Nc3ccc(-c4cncc5c4cnn5C)cc3F)cc2C(F)(F)F)CC1 [Example 13.6, 1-[2-Fluoro-4-(1-methyl-1H-pyrazolo[3,4-c]pyridin-4-yl)-phenyl]-3-[4-(4-methyl-piperazin-1-ylmethyl)-3-trifluoromethyl-phenyl]-urea]	< 501 nM	< 501 nM
CN(C)c1ccc(C(F)(F)F)cc1NC(=O)Nc1ccc(-c2cncc3c2cnn3C)cc1 [Example 13.11, 1-(2-Dimethylamino-5-trifluoromethyl-phenyl)-3-[4-(1-methyl-1H-pyrazolo[3,4-c]pyridin-4-yl)-phenyl]-urea]	< 501 nM	< 501 nM
CN(C)C1CCN(c2ccc(C(F)(F)F)cc2NC(=O)Nc2ccc(-c3cncc4c3cnn4C)cc2)C1 (stereo not shown) [Example 13.12, 1-[2-(3-Dimethylamino-pyrrolidin-1-yl)-5-trifluoromethyl-phenyl]-3-[4-(1-methyl-1H-pyrazolo[3,4-c]pyridin-4-yl)-phenyl]-urea]	< 501 nM	< 501 nM
CN(C)CCN(C)c1ccc(C(F)(F)F)cc1NC(=O)Nc1ccc(-c2cncc3c2cnn3C)cc1 [Example 13.13, 1-{2-[(2-Dimethylamino-ethyl)-methyl-amino]-5-trifluoromethyl-phenyl}-3-[4-(1-methyl-1H-pyrazolo[3,4-c]pyridin-4-yl)-phenyl]-urea]	< 501 nM	< 501 nM
Cn1nc(C(C)(C)C)cc1NC(=O)Nc1ccc(-c2cncc3c2cnn3C)cc1 [Example 14.3, 1-(5-tert-Butyl-2-methyl-2H-pyrazol-3-yl)-3-[4-(1-methyl-1H-pyrazolo[3,4-c]pyridin-4-yl)-phenyl]-urea]	< 501 nM	< 501 nM
Cn1ncc2c(-c3ccc(NC(=O)Nc4cc(C(F)(F)F)ccn4)c(F)c3)cncc21 [Example 14.5, 1-[2-Fluoro-4-(1-methyl-1H-pyrazolo[3,4-c]pyridin-4-yl)-phenyl]-3-(4-trifluoromethyl-pyridin-2-yl)-urea]	< 501 nM	< 501 nM
CC(C)c1cc(NC(=O)Nc2ccc(-c3cncc4c3cnn4C)cc2)n(-c2cccc(F)c2)n1 [Example 15.1, 1-[2-(3-Fluoro-phenyl)-5-isopropyl-2H-pyrazol-3-yl]-3-[4-(1-methyl-1H-pyrazolo[3,4-c]pyridin-4-yl)-phenyl]-urea]	< 501 nM	< 501 nM
CC(C)c1cc(NC(=O)Nc2ccc(-c3cncc4c3cnn4C)cc2F)n(-c2cccc(F)c2)n1 [Example 15.2, 1-[2-Fluoro-4-(1-methyl-1H-pyrazolo[3,4-c]pyridin-4-yl)-phenyl]-3-[2-(3-fluoro-phenyl)-5-isopropyl-2H-pyrazol-3-yl]-urea]	< 501 nM	< 501 nM
COc1cccc(-n2nc(C(C)(C)C)cc2NC(=O)Nc2ccc(-c3cncc4c3cnn4C)cc2)c1 [Example 15.5, 1-[5-tert-Butyl-2-(3-methoxy-phenyl)-2H-pyrazol-3-yl]-3-[4-(1-methyl-1H-pyrazolo[3,4-c]pyridin-4-yl)-phenyl]-urea]	< 501 nM	< 501 nM
Cn1ncc2c(-c3ccc(NC(=O)Nc4cc(C(C)(C)C)nn4-c4ccc(F)cc4)cc3)cncc21 [Example 15.7, 1-[5-tert-Butyl-2-(4-fluoro-phenyl)-2H-pyrazol-3-yl]-3-[4-(1-methyl-1H-pyrazolo[3,4-c]pyridin-4-yl)-phenyl]-urea]	< 501 nM	< 501 nM
Cn1ncc2c(-c3ccc(NC(=O)Nc4cc(C(C)(C)C)nn4-c4ccncc4)cc3)cncc21 [Example 15.10, 1-(5-tert-Butyl-2-pyridin-4-yl-2H-pyrazol-3-yl)-3-[4-(1-methyl-1H-pyrazolo[3,4-c]pyridin-4-yl)-phenyl]-urea]	< 501 nM	< 501 nM
